This is an account of results in patent US11136352B2, “Immunotherapy against several tumors including neuronal and brain tumors” (IMMATICS BIOTECHNOLOGIES GMBH, priority 2008, dated 2021).

One experiment concerns CD8+ T cells from HLA-A*02+ buffy coats of healthy donors. Description: In vitro priming of CD8+ T cells with pMHC/anti-CD28 coated beads (aAPC), tetramer readout. The following applies: healthy HLA-A*02+ donors; three in vitro stimulations; TUMAP-specific tetramer+ CD8+ T cells. It counts as cell-based, human. How it is done: To perform in vitro stimulations by artificial antigen presenting cells (aAPC) loaded with peptide-MHC complex (pMHC) and anti-CD28 antibody, first we isolated PBMCs (peripheral blood mononuclear cells) from fresh HLA-A*02+ buffy coats by using standard density gradient separation medium (PAA, Cölbe, Germany). Buffy coats were either obtained from the Blood Bank Tubingen or from the Katharinenhospital Stuttgart. Isolated PBMCs were incubated overnight in T-cell medium (TCM) for human in vitro priming consisting of RPMI-Glutamax (Invitrogen, Karlsruhe, Germany) supplemented with 10% heat inactivated human AB serum (PAA, Cölbe, Germany), 100 U/ml Penicillin/100 μg/ml Streptomycin (Cambrex, Verviers, Belgium), 1 mM sodium pyruvate (CC Pro, Neustadt, Germany) and 20 μg/ml Gentamycin (Cambrex). CD8+ lymphocytes were isolated using the CD8+ MACS positive selection kit (Miltenyi, Bergisch Gladbach, Germany) according to the manufacturer's instructions. […] 800.000 beads/200 μl were coated in 96-well plates in the presence of 600 ng biotin anti-CD28 plus 200 ng relevant biotin-pMHC (high density beads) or 2 ng relevant plus 200 ng irrelevant (pMHC library) MHC (low density beads). Stimulations were initiated in 96-well plates by co-incubating 1×10^6 CD8+ T cells with 2×10^5 washed coated beads in 200 μl TCM supplemented with 5 ng/ml IL-12 (PromoCell) for 3-4 days at 37° C. Half of the medium was then exchanged by fresh TCM supplemented with 80 U/ml IL-2 and incubating was continued for 3-4 days at 37° C. This stimulation cycle was performed for a total of three times. […] Peptide specific cells were calculated as percentage of total CD8+ T cells. Evaluation of tetrameric analysis was done using the software FCS Express (De Novo Software). In vitro priming of specific tetramer+CD8+ lymphocytes was detected by appropriate gating and by comparing to negative control stimulations.
Compound “NLDTLMTYV (listed as Homo sapiens) [NLGN4X-001, HLA-A*02 peptide from NLGN4X]” came in with a Positive donors/donors tested of 100% and a Positive wells/wells tested of 62%.
The compound “GLWHHQTEV (listed as Homo sapiens) [NRCAM-001, HLA-A*02 peptide from NRCAM]” came in with a Positive donors/donors tested of 86% and a Positive wells/wells tested of 39%.
Compound “SLNELRVLL (listed as Homo sapiens) [CLIP2-001, HLA-A*02 peptide from CLIP2]” gave a Positive donors/donors tested of 75% and a Positive wells/wells tested of 6%.
The like results for `CSCC[C@H](NC(=O)[C@@H](N)[C@@H](C)O)C(=O)N[C@@H](CC(C)C)C(=O)N[C@@H](C)C(=O)N[C@@H](CCCNC(=N)N)C(=O)N[C@@H](CC(C)C)C(=O)N[C@@H](C)C(=O)N[C@@H](CO)C(=O)N[C@@H](C)C(=O)O` [CSP-001] were, in that order, 100% and 57%.
For “TLVGIIVGV (listed as Homo sapiens) [PDPN-001, HLA-A*02 peptide from PDPN]” the same measures were 60% and 11%.
In turn, “YLIAGIISL (listed as Homo sapiens) [SLCO1C1-001, HLA-A*02 peptide from SLCO1C1]” displayed a Positive donors/donors tested of 60% and a Positive wells/wells tested of 7%.
“LTFGDVVAV (listed as Homo sapiens) [FABP7-001, HLA-A*02 peptide from FABP7]” registered a Positive donors/donors tested of 100% and a Positive wells/wells tested of 27%.
For “ALWAWPSEL (listed as Homo sapiens) [BCA-002, HLA-A*02 peptide from BCAN]” the same measures were 75% and 35%.
The like results for “KIQEILTQV (listed as Homo sapiens) [IGF2BP3-001, HLA-A*02 peptide from IGF2BP3]” were, in that order, 50% and 21%.
For “QLLAGVFLA (listed as Homo sapiens) [TNC-002, HLA-A*02 peptide from TNC]” the same measures were 50% and 14%.
Consider “GLQSQIAQV (listed as Homo sapiens) [NES-001, HLA-A*02 peptide from NES]”, for which the Positive donors/donors tested stood at 75% and the Positive wells/wells tested was 38%.
The like results for “AMTQLLAGV (listed as Homo sapiens) [TNC-001, HLA-A*02 peptide from TNC]” were, in that order, 60% and 30%.
The like results for “FLGDPPEKL (listed as Homo sapiens) [BCA-001, HLA-A*02 peptide from BCAN]” were, in that order, 60% and 5%.

In another experiment the test system is precursor T cells of glioblastoma patients. In words: In vitro immunogenicity in a small number of glioblastoma patients. The format is cell-based, human. The following applies: compared with healthy donors.
As for “NLDTLMTYV (listed as Homo sapiens) [NLGN4X-001, HLA-A*02 peptide from NLGN4X]”, the “Immunogenicity in glioblastoma patients” value is “immunogenic to a similar extent compared with healthy donors”.
Same read-out and setting: next, “ALWAWPSEL (listed as Homo sapiens) [BCA-002, HLA-A*02 peptide from BCAN]”: “immunogenic to a similar extent compared with healthy donors”.

The next experiment deals with granzyme B-secreting CTLs.
Assay: not given
The following applies: type 1 diabetic patients and antibody-positive relatives compared with healthy donors; cited from earlier work.
As to “NLAQDLATV (listed as Homo sapiens) [GFAP-001, HLA-A*02 peptide from GFAP]”, the “Reactivity of granzyme B-secreting CTLs” value was “enhanced reactivity”.
